The record followed here is BindingDB's records for PubMed 10617681 (Dupont Pharmaceuticals, 2000).

Molecules are shown by their SMILES.

One may read the Ki as the equilibrium dissociation constant of an inhibitor or competing ligand from its target. The low end stands for a stronger hold on the target, the high end for a looser hold on the target.

Assay [1] has as its target 5-hydroxytryptamine receptor 2B (Homo sapiens, UniProt P41595).
Assay [2] concerns the target T1, 5-hydroxytryptamine receptor 2C (Homo sapiens, UniProt P28335).
T1 sequence (P28335 whole entry): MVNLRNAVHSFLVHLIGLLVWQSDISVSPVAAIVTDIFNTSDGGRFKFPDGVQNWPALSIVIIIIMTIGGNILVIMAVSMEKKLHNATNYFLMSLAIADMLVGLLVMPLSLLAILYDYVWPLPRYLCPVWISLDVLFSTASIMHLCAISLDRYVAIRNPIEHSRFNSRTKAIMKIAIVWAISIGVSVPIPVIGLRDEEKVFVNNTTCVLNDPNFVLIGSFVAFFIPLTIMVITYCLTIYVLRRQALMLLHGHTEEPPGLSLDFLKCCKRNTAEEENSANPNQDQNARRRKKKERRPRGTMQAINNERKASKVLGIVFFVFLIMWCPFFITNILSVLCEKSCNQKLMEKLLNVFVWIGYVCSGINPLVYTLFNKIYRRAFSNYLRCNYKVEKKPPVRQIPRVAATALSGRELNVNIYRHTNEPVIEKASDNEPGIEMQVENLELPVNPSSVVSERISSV

5-hydroxytryptamine receptor 2B, sequence (P41595 whole entry): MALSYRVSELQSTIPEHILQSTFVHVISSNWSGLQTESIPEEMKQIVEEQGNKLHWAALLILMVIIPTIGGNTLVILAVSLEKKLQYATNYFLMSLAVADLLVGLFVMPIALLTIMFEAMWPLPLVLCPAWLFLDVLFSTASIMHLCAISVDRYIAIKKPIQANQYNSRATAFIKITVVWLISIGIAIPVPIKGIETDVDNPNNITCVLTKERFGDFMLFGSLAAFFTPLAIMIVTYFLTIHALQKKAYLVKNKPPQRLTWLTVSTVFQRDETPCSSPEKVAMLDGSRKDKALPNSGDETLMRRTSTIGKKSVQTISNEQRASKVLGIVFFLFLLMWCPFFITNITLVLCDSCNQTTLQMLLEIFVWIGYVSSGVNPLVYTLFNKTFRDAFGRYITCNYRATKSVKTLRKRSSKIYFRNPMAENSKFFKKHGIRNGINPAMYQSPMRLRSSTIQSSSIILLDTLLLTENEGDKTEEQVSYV

As for `C[C@@H](N)Cc1cccc(C(F)(F)F)c1` [l-norfenfluramine], the inhibition constant (Ki) in assay [1] was 65 nM; in assay [2] it was 99 nM.

As for `C[C@H](N)Cc1cccc(C(F)(F)F)c1` [Norfenfluramine (+)], the values for the inhibitory constant (Ki) in assay [1] and in assay [2] were 27 nM and 56 nM, respectively.
